Measurements from patent US8748412B2, “Phenylalanine derivatives and their use as non-peptide GLP-1 receptor modulators” (Argusina Bioscience Inc., priority 2011, dated 2014).

target: T1, human GLP1R (Homo sapiens, UniProt P43220); assay: Human GLP-1 receptor transfected cell assay (MRE/CRE-luciferase reporter gene, agonist activity); assay type: cell-based; settings: 6 h; conc. 3.16 μM; percentage of the activity of the control; read-out: Agonist Activity
T1 construct: expressed in transfected cells; host or cells: CHO cells (ATCC), transient transfection with pCMV-human GLP1R
T1 sequence (P43220 24-463): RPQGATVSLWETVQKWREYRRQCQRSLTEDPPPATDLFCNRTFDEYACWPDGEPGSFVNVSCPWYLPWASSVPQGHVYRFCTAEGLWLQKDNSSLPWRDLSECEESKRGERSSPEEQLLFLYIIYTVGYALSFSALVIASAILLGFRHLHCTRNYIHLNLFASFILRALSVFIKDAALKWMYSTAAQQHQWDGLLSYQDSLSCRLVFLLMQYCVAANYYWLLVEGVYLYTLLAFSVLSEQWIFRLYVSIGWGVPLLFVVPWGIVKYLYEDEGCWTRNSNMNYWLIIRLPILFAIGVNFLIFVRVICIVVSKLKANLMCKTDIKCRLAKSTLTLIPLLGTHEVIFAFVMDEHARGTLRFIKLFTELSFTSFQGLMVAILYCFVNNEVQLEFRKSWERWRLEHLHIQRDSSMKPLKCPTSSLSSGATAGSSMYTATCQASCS
How it was run: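 CHO cells transiently co-transfected with human GLP1R and MRE/CRE-driven luciferase reporter plasmids. Compound or GLP-1 (7-36 amide) standard dilution series added for 6 h at 37 °C, 5% CO2. Agonist activity read as Bright-Glo luciferase luminescence.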

activation at 3.16 µM | SMILES
40 to 60% | Cc1ccc(-c2ccc(C(=O)NC(Cc3ccc(-c4nnc(-c5ccc(NC(=O)OC(C)(C)C)cc5)o4)c(F)c3)C(=O)O)o2)cc1 (centres unmarked) [Compound 14F]
> 60% | CC(C)(C)OC(=O)Nc1ccc(-c2nc(-c3ccc(CC(NC(=O)c4cncc(-c5ccc(F)cc5)c4)C(=O)O)cc3F)no2)cc1 (centres unmarked) [Compound 14H]

same assay, conditions: 6 h; conc. 10 μM; percentage of the activity of the control; read-out: Agonist Activity

activation at 10 µM | SMILES
20 to 40% | CC(C)c1ccc(S(=O)(=O)NC(Cc2ccc(-c3noc(-c4ccc(NC(=O)OC(C)(C)C)cc4)n3)c(F)c2)C(=O)O)cc1 (centres unmarked) [Compound 11C]
> 60% | CC(C)(C)OC(=O)Nc1ccc(-c2nc(-c3ccc(CC(NC(=O)Nc4ccc(-c5ccccc5F)cn4)C(=O)O)cc3F)no2)cc1 (centres unmarked) [Compound 13T]
> 60% | COc1ccc(-c2cc(NC(=O)NC(Cc3ccc(-c4noc(-c5ccc(NC(=O)OC(C)(C)C)cc5)n4)c(F)c3)C(=O)O)[nH]n2)cc1 (centres unmarked) [Compound 12H]
> 60% | CC(C)(C)OC(=O)Nc1ccc(-c2nc(-c3ccc(CC(NS(=O)(=O)c4ccc(C(F)(F)F)cc4[N+](=O)[O-])C(=O)O)cc3F)no2)cc1 (centres unmarked) [Compound 11M]
> 60% | CC(C)(C)OC(=O)Nc1ccc(-c2nc(-c3ccc(CC(NC(=O)C4CCN(C(=O)OC(C)(C)C)CC4)C(=O)O)cc3F)no2)cc1 (centres unmarked) [Compound 11R]
> 60% | CC(C)(C)OC(=O)Nc1ccc(-c2nc(-c3ccc(CC(NC(=O)Nc4ccc(-c5cccc(Cl)c5)cn4)C(=O)O)cc3F)no2)cc1 (centres unmarked) [Compound 13V]
40 to 60% | CC(C)c1ccc(-c2ccc(NC(=O)NC(Cc3ccc(-c4noc(-c5ccc(NC(=O)OC(C)(C)C)cc5)n4)c(F)c3)C(=O)O)nc2)cc1 (centres unmarked) [Compound 13O]
> 60% | Cc1ccc(-c2ccc(C(=O)NC(Cc3ccc(-c4noc(-c5ccc(NC(=O)OC(C)(C)C)cc5F)n4)c(F)c3)C(=O)O)o2)cc1 (centres unmarked) [Compound 14A]
> 60% | CC(C)(C)OC(=O)Nc1ccc(-c2nc(-c3ccc(CC(NS(=O)(=O)c4cccc5cccnc45)C(=O)O)cc3F)no2)cc1 (centres unmarked) [Compound 11J]
20 to 40% | CC(C)(C)OC(=O)Nc1ccc(-c2nc(-c3ccc(CC(NC(=O)c4cccc(N5CCCCC5)c4)C(=O)O)cc3F)no2)cc1 (centres unmarked) [Compound 11Y]
> 60% | Cc1ccc(-c2ccc(C(=O)NC(Cc3ccc(-c4noc(-c5ccc(NC(=O)OC(C)(C)C)cc5)n4)c(F)c3F)C(=O)O)o2)cc1 (centres unmarked) [Compound 13F]
> 60% | Cc1ccc(-c2cccc(NC(=O)NC(Cc3ccc(-c4noc(-c5ccc(NC(=O)OC(C)(C)C)cc5)n4)c(F)c3)C(=O)O)c2)cc1 (centres unmarked) [Compound 13R]
> 60% | CC(C)(C)OC(=O)Nc1ccc(-c2nc(-c3ccc(CC(NC(=O)Nc4ccc(-c5cccc(F)c5)cn4)C(=O)O)cc3F)no2)cc1 (centres unmarked) [Compound 13W]
> 60% | Cc1ccc(-c2ccc(NC(=O)NC(Cc3ccc(-c4noc(-c5ccc(NC(=O)OC(C)(C)C)cc5)n4)c(F)c3)C(=O)O)nc2)cc1Cl (centres unmarked) [Compound 13M]
40 to 60% | Cc1cc(C)c(S(=O)(=O)NC(Cc2ccc(-c3noc(-c4ccc(NC(=O)OC(C)(C)C)cc4)n3)c(F)c2)C(=O)O)c(C)c1 (centres unmarked) [Compound 11I]

same assay, conditions: 6 h; concentration 1 μM; read-out: Activity (agonist), percentage of the activity of the control

activation at 1 µM | SMILES
> 60% | Cc1ccc(-c2ccc(C(=O)NC(Cc3ccc(-c4noc(-c5ccc(NC(=O)OC(C)(C)C)cc5)n4)c(F)c3)C(=O)O)o2)cc1F (centres unmarked) [Compound 1N]
40 to 60% | CC(C)(C)OC(=O)Nc1ccc(-c2nc(-c3ccc(CC(NC(=O)Nc4cc(-c5ccc(F)cc5)on4)C(=O)O)cc3F)no2)cc1 (centres unmarked) [Compound 4S]
40 to 60% | CC1CCN(S(=O)(=O)NC(Cc2ccc(-c3noc(-c4ccc(NC(=O)OC(C)(C)C)cc4)n3)c(F)c2)C(=O)O)CC1 (centres unmarked) [Compound 3W]
40 to 60% | Cc1ccc(-c2ccc(C(=O)N[C@H](Cc3ccc(C)c(-c4noc(-c5ccc(NC(=O)OC(C)(C)C)cc5)n4)c3)C(=O)O)o2)cc1 [Compound 6Z]
> 60% | CC(C)(C)OC(=O)Nc1ccc(-c2nc(-c3ccc(CC(NC(=O)N4CCN(c5ccc(Cl)cc5)CC4)C(=O)O)cc3F)no2)cc1 (centres unmarked) [Compound 4K]
40 to 60% | Cc1ccc(-c2nc(C(=O)NC(Cc3ccc(C#Cc4ccc(NC(=O)OC(C)(C)C)cc4)c(F)c3)C(=O)O)cs2)cc1 (centres unmarked) [Compound 3E]
40 to 60% | CC(C)(C)OC(=O)Nc1ccc(-c2nc(-c3ccc(C[C@@H](NC(=O)c4cccc(-c5ccccc5F)c4)C(=O)O)cc3F)no2)cc1 [Compound 6P]

same assay, conditions: 6 h; concentration 3 μM; read-out: Activity (agonist), percentage of the activity of the control

activation at 3 µM | SMILES
20 to 40% | CC(C)(C)OC(=O)Nc1ccc(-c2nc(-c3ccc(CC(NC(=O)c4ccc(N5CCOCC5)cc4)C(=O)O)cc3F)no2)cc1 (centres unmarked) [Compound 3V]
20 to 40% | CC(C)(C)OC(=O)Nc1ccc(C#Cc2ccc(CC(NC(=O)c3cccc(-c4ccc(Cl)cc4)c3)C(=O)O)cc2F)cc1 (centres unmarked) [Compound 4E]
40 to 60% | Cc1ccc(-c2ccc(C(=O)N[C@H](Cc3ccc(F)c(-c4noc(-c5ccc(NC(=O)OC(C)(C)C)cc5)n4)c3)C(=O)O)o2)cc1 [Compound 1E]
20 to 40% | Cc1ccc(-c2cccc(C(=O)N[C@H](Cc3ccc(-c4noc(-c5ccc(NC(=O)OC(C)(C)C)cc5)n4)c(F)c3)C(=O)O)c2)o1 [Compound 6I]
40 to 60% | CC(C)Oc1ccc(-c2ccc(C(=O)N[C@H](Cc3ccc(-c4noc(-c5ccc(NC(=O)OC(C)(C)C)cc5)n4)c(F)c3)C(=O)O)o2)cc1 [Compound 6N]
40 to 60% | Cc1csc(-c2cccc(C(=O)N[C@H](Cc3ccc(-c4noc(-c5ccc(NC(=O)OC(C)(C)C)cc5)n4)c(F)c3)C(=O)O)c2)c1 [Compound 6U]

same assay, conditions: 6 h; concentration 3.16 μM; read-out: Activity (agonist), percentage of the activity of the control

activation at 3.16 µM | SMILES
> 60% | CC(C)c1ccc(-c2cccc(C(=O)NC(Cc3ccc(-c4noc(-c5ccc(NC(=O)OC(C)(C)C)cc5)n4)c(F)c3)C(=O)O)c2)cc1 (centres unmarked) [Compound 2K]
40 to 60% | COc1ccc(N2CCN(C(=O)NC(Cc3ccc(-c4noc(-c5ccc(NC(=O)OC(C)(C)C)cc5)n4)c(F)c3)C(=O)O)CC2)cc1 (centres unmarked) [Compound 4J]
> 60% | CC(C)(C)OC(=O)Nc1ccc(-c2nc(-c3ccc(CC(NC(=O)c4cnn(-c5ccc(C(C)(C)C)cc5)c4)C(=O)O)cc3F)no2)cc1 (centres unmarked) [Compound 3A]
> 60% | CC(C)(C)OC(=O)Nc1ccc(-c2nc(-c3ccc(CC(NC(=O)c4cccc(-c5ccc(Cl)cc5F)n4)C(=O)O)cc3F)no2)cc1 (centres unmarked) [Compound 2N]
> 60% | COc1ccc(-c2ccc(C(=O)NC(Cc3ccc(-c4noc(-c5ccc(NC(=O)OC(C)(C)C)cc5)n4)c(F)c3)C(=O)O)o2)cc1 (centres unmarked) [Compound 1J]
> 60% | CC(C)(C)OC(=O)Nc1ccc(-c2nc(-c3ccc(CC(NC(=O)Nc4cc(-c5ccccc5)n[nH]4)C(=O)O)cc3F)no2)cc1 (centres unmarked) [Compound 4G]
> 60% | CC(C)(C)OC(=O)Nc1ccc(-c2nc(-c3ccc(CC(NC(=O)c4c[nH]c(-c5ccc(Cl)cc5)n4)C(=O)O)cc3F)no2)cc1 (centres unmarked) [Compound 2S]

same assay, conditions: 6 h; concentration 10 μM; read-out: Activity (agonist), percentage of the activity of the control

activation at 10 µM | SMILES
> 60% | CC(C)(C)OC(=O)Nc1ccc(-c2nc(-c3ccc(CC(NC(=O)c4cn(Cc5ccc(F)c(F)c5)nn4)C(=O)O)cc3F)no2)cc1 (centres unmarked) [Compound 3C]
> 60% | CC(C)(C)OC(=O)Nc1ccc(-c2nc(-c3ccc(CC(NC(=O)/C=C/c4ccc(F)cc4)C(=O)O)cc3F)no2)cc1 (centres unmarked) [Compound 1C]
> 60% | Cc1ccc(-c2ccc(C(=O)NC(Cc3ccc(NC(=O)c4cccc(Br)c4)c(F)c3)C(=O)O)o2)cc1 (centres unmarked) [Compound 5S]
> 60% | Cc1ccc(-c2cccc(C(=O)NC(Cc3ccc(-c4noc(C(=O)N5CCC(C)CC5)n4)c(F)c3)C(=O)O)c2)cc1 (centres unmarked) [Compound 5U]
> 60% | Cc1ccc(-c2ccc(C(=O)NC(Cc3ccc(C#Cc4ccc(NC(=O)OC(C)(C)C)cc4)c(F)c3)C(=O)O)o2)cc1 (centres unmarked) [Compound 5E]
> 60% | CC(C)(C)OC(=O)Nc1ccc(-c2nc(-c3ccc(C[C@@H](NC(=O)c4cccc(-c5ccc(Cl)cc5)c4)C(=O)O)cc3F)no2)cc1 [Compound 6A]
> 60% | Cc1cc(-c2ccc(C(=O)NC(Cc3ccc(-c4noc(-c5ccc(NC(=O)OC(C)(C)C)cc5)n4)c(F)c3)C(=O)O)o2)ccc1F (centres unmarked) [Compound 1M]
> 60% | Cc1ccc(-c2ccc(C(=O)N[C@H](Cc3ccc(/C=C/c4ccc(NC(=O)OC(C)(C)C)cc4)c(F)c3)C(=O)O)o2)cc1 [Compound 5T]
> 60% | CC(C)(C)OC(=O)Nc1ccc(-c2nc(-c3ccc(CC(NC(=O)c4cnc(-c5ccccc5)[nH]4)C(=O)O)cc3F)no2)cc1 (centres unmarked) [Compound 1Y]
> 60% | COc1ccc(Cn2cc(C(=O)NC(Cc3ccc(-c4noc(-c5ccc(NC(=O)OC(C)(C)C)cc5)n4)c(F)c3)C(=O)O)cn2)cc1 (centres unmarked) [Compound 2W]
40 to 60% | CC(C)(C)OC(=O)Nc1ccc(-c2nc(-c3ccc(CC(NC(=O)c4cccc(Nc5ccccc5)c4)C(=O)O)cc3F)no2)cc1 (centres unmarked) [Compound 3T]

SMILES | activation at 10 µM
Cc1ccc(-c2ccc(C(=O)NC(Cc3ccc(-c4noc(-c5ccc(NC(=O)OC(C)(C)C)cc5)n4)c(F)c3)C(=O)O)o2)cc1 (centres unmarked) [Compound 1G, 3-{4-[5-(4-tert-Butoxycarbonylamino-phenyl)-[1,2,4]oxadiazol-3-yl]-3-fluoro-phenyl}-2-[(5-p-tolyl-furan-2-carbonyl)-amino]-propionic acid] | > 60%

same assay, conditions: concentration 10 μM

SMILES | Activity (agonist), percentage of the activity of the control
Cc1ccc(-n2cc(C(=O)NC(Cc3ccc(-c4noc(-c5ccc(NC(=O)OC(C)(C)C)cc5)n4)c(F)c3)C(=O)O)cn2)cc1F (centres unmarked) [Compound 2P, 3-(4-(5-(4-((tert-butoxcarbonyl)amino)phenyl)-1,2,4-oxadiazol-3-yl)-3-fluorophenyl)-2-(1-(3-fluoro-4-methylphenyl)-1H-pyrazole-4-carboxamido)propanoic acid] | A (A represents a value no smaller than 60%)
